Values quoted from earlier work as cited in US20250144015A1, “Pharmaceutical Compositions” (Extrovis AG, priority 2023, published 2025).

Tested on: opioid craving
Details: single high dose of 16 mg or 32 mg; opioid-dependent patients

In the case of CO[C@@]12CC[C@@]3(C[C@@H]1[C@](C)(O)C(C)(C)C)C1Cc4ccc(O)c5c4[C@@]3(CCN1CC1CC1)[C@H]2O5 [buprenorphine, [5α,7α(S)]-17-(Cyclopropylmethyl)-α-(1,1-dimethylethyl)-4,5-epoxy-18,19-dihydo-3-hydroxy-6-methoxy-α-methyl-6,14-ethenomorphinan-7-methanol], the “Effect on opioid craving” value is listed as “reduce opioid craving”.
